What was measured:
Type in all cases: cell-based, human
[1] = system: syk phosphorylation in integrin/TNF stimulated neutrophils; assay: syk phosphorylation in integrin/TNF stimulated neutrophils (in cell Western); conditions: 10 ug/ml compound, TNFα 200 ng/ml, 1 hr; FIG. 11
Description: Inhibition of syk phosphorylation was tested using the FACEMaker in cell Western Blot kit from Active Motif (Carlsbad, Calif.). In this assay, freshly isolated neutrophils were plated onto fibrinogen coated wells and stimulated with TNF at 200 ng/ml. After 1 hr., cells were fixed in formaldehyde and the Western Blot performed according to the kit instructions, with the final colorimetric product read in a plate reader. Results were corrected for cell number by subsequent staining of the cells with crystal violet and recording OD at 630 nm.
Neutrophils were isolated from healthy human donors using Polymorphprep (Axis Shield). Cells were equilibrated for 15 minutes at 37° C. in the presence or absence of 10 ug/ml compound. TNFα was added to a concentration of 200 ng/ml and cells dispensed into a 96 well strip plate previously coated with 2 mg/ml fibrinogen at 1×10^6 cells/well. Reactions were incubated at 37° C. for 1 hr., and cells fixed with 4% formaldehyde for 20 minutes at room temperature. […] The reaction was developed using the kit developing solution and the resulting colorimetric product read in a plate reader at 450 nm with a 650 nm reference. […]

neutrophils = assay: Zymosan phagocytosis by neutrophils (CytoSelect 96-Well Phagocytosis Assay); conditions: 10 ug/ml compound, zymosan 1.5 hrs; FIG. 10
Description: Inhibition of phagocytosis was carried out using the CytoSelect™ 96-Well Phagocytosis Assay (Cell Biolabs, Inc). The phagocytic target was zymosan (Saccharomyces cerevisiae), made from yeast cell wall. For this assay, neutrophils were seeded onto fibrinogen coated wells in the presence of inhibitor. Zymosan was added, and reactions incubated for 1.5 hr. Phagocytosis was detected by permeabilizing the cells and adding a detection reagent that was quantified colorimetrically in a plate reader at 405 nm.
Neutrophils were isolated from healthy human donors using Polymorphprep (Axis Shield). Cells were equilibrated for 15 minutes at 37° C. in the presence or absence of 10 ug/ml compound, then plated into 96 well plates previously coated with 2 ng/ml fibrinogen. The subsequent phagocytosis assay was carried out using a commercial phagocytosis assay (CytoSelect™ 96-Well Phagocytosis Assay (Zymosan), Cell Biolabs.) Briefly, cells were incubated with zymosan at 37° C. for 1.5 hrs., fixed with 8% formaldehyde for 5 minutes at room temperature, blocked, permeabilized and detection reagent added which detects phagocytosed zymosan. The reaction was developed by adding a substrate and the resulting colorimetric product was detected in a plate reader. ODs were corrected for relative confluence of the cells based on a visual estimate of confluence. Results are reported as corrected ODs.

[2] = system: TNF/antineutrophil cytoplasmic antibody stimulated neutrophils; assay: Respiratory burst in TNF/antineutrophil cytoplasmic antibody stimulated neutrophils (cytochrome c reduction); conditions: 10 ug/ml compound, TNFα 200 ng/ml, anti-MPO or anti-Pr3; FIGS. 5 and 6
Description: During the respiratory burst of activated neutrophils, reactive oxygen intermediates such as superoxide anion, hydroxyl radical, and hydrogen peroxide are produced. To determine the ability of compounds to affect syk dependent respiratory burst, superoxide anion production was measured in a microplate assay using the reduction of cytochrome c as a reporter assay. Respiratory burst can be induced through two different syk dependent signaling pathways, integrin mediated and Fc Receptor mediated. Compounds were tested in both pathways.
For respiratory burst assays, neutrophils (1×10^6) were added to microtiter plates that were coated with fibrinogen for integrin signaling or uncoated for Fc receptor signaling. […] At the end of the incubations, reduction of cytochrome c was quantified by measuring absorbance at 550 nm using a microplate reader. […]
(§1) Neutrophils were isolated from healthy human donors using Polymorphprep (Axis Shield). […] Reduction of cytochrome c was measured by reading absorbance at 550 nm with a 490 nm reference in a spectrophotometer. […]
as §1

SMILES: N#Cc1c(C(F)(F)F)cc(-c2ccc(Br)cc2)nc1SC(C(=O)O)c1ccccc1 (stereo not drawn) [Compound 1, α-[[6-(4-bromophenyl)-3-cyano-4-(trifluoromethyl)-2-pyridinyl]thio]-benzeneacetic acid]
- inhibition of syk phosphorylation in integrin/TNF stimulated neutrophils [1]: inhibition
- inhibition of zymosan phagocytosis by neutrophils (neutrophils): inhibition
- respiratory burst in TNF/antineutrophil cytoplasmic antibody stimulated neutrophils [2]: stimulation

From patent US9212143B2, “Small molecule inhibitors of protein kinases” (priority 2010, dated 2015)
